The results in this text go back to PubChem BioAssay (NCI).

The structures appear in SMILES notation.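 Exposure lasted 48 hours, with cells grown in 96-well plates and compounds tested at five concentrations. TGI: total growth inhibition.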

For one test, the system named is SF-539 CNS. As to the kind of experiment: DTP human tumour cell line panel, 48 h.
Regarding `Cc1ccc(OCC2OC(n3cnc4c(Cl)nc(Nc5cc(Cl)cc(Cl)c5)nc43)CC2Oc2ccc(C)cc2)cc1` (centres undefined), the TGI is above 100 µM.
Still for that read-out and setting: with `O=c1c(-c2ccccc2)nnc2n(Cc3ccccc3)c3ccccc3n12` the figure was above 100 µM.

In the next test the test system is NCI-H460 lung. Put plainly: DTP human tumour cell line panel, 48 h.
In the case of `C=CCC(CCC(C)=O)(C(=O)OCC)C(=O)OCC`, the TGI was above 100 µM.
Same read-out and setting: with `CC(C)C(Cl)CCC(C)(Cl)C(=O)CBr` (centres undefined) the figure was 33.4 µM; with `C1CSCCSCCCS[C@@H]2CCCCC2SC1` (some centres undefined), above 100 µM; with `COC(=O)[C@H](Cc1ccccc1)NC(=O)c1ccc(CNC(=O)/C=C/c2csc(-c3ccccc3)n2)cc1`, 42.6 µM.
As to `N#Cc1ccccc1OCCOc1ccccc1C#N`, the TGI was above 100 µM.
Turning to `CCOC(=O)c1cn(CC)c(=O)n2c1nc1ccccc12`, the TGI was above 100 µM.
The same measure, in the same setting: with `Cc1cccc2sc(NC(=O)NS(=O)(=O)n3cnc4ccccc43)nc12` the figure was above 100 µM.
Turning to `NNc1nnc(CCCCCCCCc2nnc(NN)n2N)n1N`, the TGI was above 100 µM.
On to `COc1ccc2nc3c(c(N)c2c1)C1CCC3C1(C)C` (centres undefined), for which the TGI is above 100 µM.
Still for that read-out and setting: under `CCN1/C(=C/C#C/C(C)=C\c2sc3ccc(Cl)cc3[n+]2CC)Sc2ccc(Cl)cc21` stands above 100 µM; under `CC(=O)c1ccc(N=NN2CCCC2)cc1`, above 100 µM.
For `CSC(=O)/C=C1\SS/C(=C\C(=O)SC)S1`, the TGI stood at 7.61 µM.
In turn, `Cc1ccc(S[C@@](C=O)(NC(=O)OCc2ccccc2)C(F)(F)F)cc1` returned a TGI of 79.3 µM. This TGI is about 10-fold higher than that of the compound before.
Same read-out and setting: with `O=C1CC(O)c2cscc21` (centres undefined) the figure was above 100 µM; with `Cc1cc(O)c(/C=N/C(N)=S)c(=O)o1`, above 100 µM; with `Cc1ccc(OCC2OC(n3cnc4c(Cl)nc(Nc5cc(Cl)cc(Cl)c5)nc43)CC2Oc2ccc(C)cc2)cc1` (centres undefined), above 100 µM.
On the same count and under the same terms, under `O=c1c(-c2ccccc2)nnc2n(Cc3ccccc3)c3ccccc3n12` stands above 100 µM; under `C=CCON(C(=O)OC(C)(C)C)C(C)(C)C`, above 100 µM.

The test system of the next test is SK-OV-3 ovarian. As to the kind of experiment: DTP human tumour cell line panel, 48 h.
`C=CCC(CCC(C)=O)(C(=O)OCC)C(=O)OCC` displayed a TGI above 100 µM.
Regarding `CC(C)C(Cl)CCC(C)(Cl)C(=O)CBr` (centres undefined), the TGI stood at 39.1 µM.
`C1CSCCSCCCS[C@@H]2CCCCC2SC1` (some centres undefined): the TGI was above 100 µM.
Still for that read-out and setting: with `COC(=O)[C@H](Cc1ccccc1)NC(=O)c1ccc(CNC(=O)/C=C/c2csc(-c3ccccc3)n2)cc1` the figure was above 65.5 µM.
On the same count and under the same terms, with `N#Cc1ccccc1OCCOc1ccccc1C#N` the figure was above 100 µM.
The same measure, in the same setting: under `Cc1cccc2sc(NC(=O)NS(=O)(=O)n3cnc4ccccc43)nc12` stands above 100 µM; under `NNc1nnc(CCCCCCCCc2nnc(NN)n2N)n1N`, above 100 µM.
Turning to `COc1ccc2nc3c(c(N)c2c1)C1CCC3C1(C)C` (centres undefined), the TGI is above 100 µM.
In the case of `CCN1/C(=C/C#C/C(C)=C\c2sc3ccc(Cl)cc3[n+]2CC)Sc2ccc(Cl)cc21`, the concentration for total growth inhibition (TGI) was 22 µM. This lies in the double-digit micromolar range.
`CC(=O)c1ccc(N=NN2CCCC2)cc1` displayed a TGI above 100 µM.
On the same count and under the same terms, with `Cc1ccc(S[C@@](C=O)(NC(=O)OCc2ccccc2)C(F)(F)F)cc1` the figure was above 100 µM; with `O=C1CC(O)c2cscc21` (centres undefined), above 100 µM; with `Cc1cc(O)c(/C=N/C(N)=S)c(=O)o1`, above 100 µM.
Still for that read-out and setting: with `Cc1ccc(OCC2OC(n3cnc4c(Cl)nc(Nc5cc(Cl)cc(Cl)c5)nc43)CC2Oc2ccc(C)cc2)cc1` (centres undefined) the figure was above 100 µM; with `C=CCON(C(=O)OC(C)(C)C)C(C)(C)C`, above 100 µM.

The next test deals with HOP-92 NSCLC. Put plainly: DTP human tumour cell line panel, 48 h.
With `C=CCC(CCC(C)=O)(C(=O)OCC)C(=O)OCC`, the TGI was above 100 µM.
`CC(C)C(Cl)CCC(C)(Cl)C(=O)CBr` (centres undefined) displayed a concentration for total growth inhibition (TGI) of 23.8 µM.
Take `C1CSCCSCCCS[C@@H]2CCCCC2SC1` (some centres undefined): the TGI is above 100 µM.
For the compound `COC(=O)[C@H](Cc1ccccc1)NC(=O)c1ccc(CNC(=O)/C=C/c2csc(-c3ccccc3)n2)cc1`, the TGI stood at 9.88 µM.
With `N#Cc1ccccc1OCCOc1ccccc1C#N`, the TGI is above 100 µM.
Compound `CCOC(=O)c1cn(CC)c(=O)n2c1nc1ccccc12` displayed a TGI above 100 µM.
The same measure, in the same setting: under `Cc1cccc2sc(NC(=O)NS(=O)(=O)n3cnc4ccccc43)nc12` stands 38.7 µM; under `NNc1nnc(CCCCCCCCc2nnc(NN)n2N)n1N`, above 100 µM; under `COc1ccc2nc3c(c(N)c2c1)C1CCC3C1(C)C` (centres undefined), 57.3 µM.
Same read-out and setting: with `CCN1/C(=C/C#C/C(C)=C\c2sc3ccc(Cl)cc3[n+]2CC)Sc2ccc(Cl)cc21` the figure was 5.52 µM; with `CC(=O)c1ccc(N=NN2CCCC2)cc1`, above 100 µM; with `CSC(=O)/C=C1\SS/C(=C\C(=O)SC)S1`, 7.87 µM.
On the same count and under the same terms, under `Cc1ccc(S[C@@](C=O)(NC(=O)OCc2ccccc2)C(F)(F)F)cc1` stands 65.3 µM; under `O=C1CC(O)c2cscc21` (centres undefined), above 100 µM; under `Cc1cc(O)c(/C=N/C(N)=S)c(=O)o1`, above 100 µM.
`Cc1ccc(OCC2OC(n3cnc4c(Cl)nc(Nc5cc(Cl)cc(Cl)c5)nc43)CC2Oc2ccc(C)cc2)cc1` (centres undefined) gave a concentration for total growth inhibition (TGI) above 100 µM.
The same measure, in the same setting: under `O=c1c(-c2ccccc2)nnc2n(Cc3ccccc3)c3ccccc3n12` stands above 100 µM; under `C=CCON(C(=O)OC(C)(C)C)C(C)(C)C`, above 100 µM.

Another test has as its system M14 melanoma. Put plainly: DTP human tumour cell line panel, 48 h.
The compound `C=CCC(CCC(C)=O)(C(=O)OCC)C(=O)OCC` yielded a TGI above 100 µM.
`CC(C)C(Cl)CCC(C)(Cl)C(=O)CBr` (centres undefined) returned a TGI of 11.3 µM.
As for `C1CSCCSCCCS[C@@H]2CCCCC2SC1` (some centres undefined), the TGI is above 100 µM.
`COC(=O)[C@H](Cc1ccccc1)NC(=O)c1ccc(CNC(=O)/C=C/c2csc(-c3ccccc3)n2)cc1`: the TGI turned out to be 3.81 µM.
For `N#Cc1ccccc1OCCOc1ccccc1C#N`, the concentration for total growth inhibition (TGI) was above 100 µM.
Same read-out and setting: with `CCOC(=O)c1cn(CC)c(=O)n2c1nc1ccccc12` the figure was above 100 µM; with `Cc1cccc2sc(NC(=O)NS(=O)(=O)n3cnc4ccccc43)nc12`, above 100 µM.
Compound `NNc1nnc(CCCCCCCCc2nnc(NN)n2N)n1N` returned a TGI above 100 µM.
On the same count and under the same terms, with `COc1ccc2nc3c(c(N)c2c1)C1CCC3C1(C)C` (centres undefined) the figure was 33.6 µM; with `CCN1/C(=C/C#C/C(C)=C\c2sc3ccc(Cl)cc3[n+]2CC)Sc2ccc(Cl)cc21`, 16.1 µM; with `CC(=O)c1ccc(N=NN2CCCC2)cc1`, above 100 µM.
On the same count and under the same terms, with `CSC(=O)/C=C1\SS/C(=C\C(=O)SC)S1` the figure was 5.24 µM; with `Cc1ccc(S[C@@](C=O)(NC(=O)OCc2ccccc2)C(F)(F)F)cc1`, 78.6 µM; with `Cc1cc(O)c(/C=N/C(N)=S)c(=O)o1`, above 100 µM.
The same measure, in the same setting: under `Cc1ccc(OCC2OC(n3cnc4c(Cl)nc(Nc5cc(Cl)cc(Cl)c5)nc43)CC2Oc2ccc(C)cc2)cc1` (centres undefined) stands above 100 µM; under `O=c1c(-c2ccccc2)nnc2n(Cc3ccccc3)c3ccccc3n12`, above 100 µM.

As usually defined, the TGI is the concentration at which net growth stops. A lower TGI goes with greater sensitivity of the cells.
